Our source for the inhibition values is PubChem BioAssay AID652030 (The Scripps Research Institute Molecular Screening Center, 2013).

Active and inactive are the calls of the source.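 Rule for the calls: active = inhibition of 30% or more against both LYPLA2 panels while inhibition against LYPLA1 stays below 30%; inactive = under 30% on either LYPLA2 panel, or 30%+ on LYPLA1.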

Holding throughout (test): LYPLA2 and LYPLA1 inhibition in proteome, late-stage follow-up, selectivity assay for LYPLA2 selective inhibitor project, cell lysate, gel-based ABPP, FP-Rh fluorescence, mouse brain membrane proteome (AID 652030)
The target of experiment [1] is Acyl-protein thioesterase 1 (Mus musculus) (UniProt P97823). The following applies: emLYPLA1, at 10 µM, stronger effect = higher value.
For experiment [2], the target named is Acyl-protein thioesterase 2 (Homo sapiens) (UniProt O95372). Particulars: rhLYPLA2, at 10 µM, stronger effect = higher value.
For experiment [3], the target named is Acyl-protein thioesterase 2 (Mus musculus) (UniProt Q9WTL7). The following applies: emLYPLA2, at 10 µM, stronger effect = higher value.

Acyl-protein thioesterase 2 (Homo sapiens), sequence (O95372 whole entry, looked up): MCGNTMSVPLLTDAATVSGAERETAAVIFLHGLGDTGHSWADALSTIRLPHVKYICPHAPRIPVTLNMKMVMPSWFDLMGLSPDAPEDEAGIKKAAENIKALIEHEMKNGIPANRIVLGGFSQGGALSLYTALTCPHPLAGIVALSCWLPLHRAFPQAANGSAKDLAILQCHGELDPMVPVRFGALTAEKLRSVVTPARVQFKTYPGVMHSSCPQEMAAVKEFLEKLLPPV

What is called inhibition is the change of the read-out against control, counted positive when it falls. As for `Cc1ccc(Oc2ccc3c(c2)C(=O)N(c2ccc(S(=O)(=O)Nc4nccs4)cc2)C3=O)cc1`, the inhibition was 14% (inactive) in experiment [1], 9% (inactive) in experiment [2] and 6% (inactive) in experiment [3].
`CS(=O)(=O)Nc1ccc(N2CCN(c3ccc(C(F)(F)F)cn3)CC2)nc1`: the inhibition was 0% (inactive) in experiment [1], 8% (inactive) in experiment [2] and 1% (inactive) in experiment [3].
The matching figures for `COc1ccc2c(c1)C(=O)[C@@H](O)[C@H](c1ccc(OC)c(Br)c1)O2`: 13% (inactive), 20% (inactive) and 31%.
`CC(=O)c1ccc(N2CCN(C(=O)C3CCN(S(=O)(=O)c4ccc5c(c4)CC(C)N5C(C)=O)CC3)CC2)cc1` (stereo not drawn): the inhibition in experiment [1] is 18% (inactive); in experiment [2], 8% (inactive); in experiment [3], 10% (inactive).
On the same counts, the results for `O=C(NC(=S)Nc1sc2c(c1C(=O)O)CCCC2)c1ccccc1` are 34%, 32% and 43%.
On the same counts, the results for `COc1ccc(-n2nc(C(=O)NCC(=O)N3CCN(Cc4ccccc4)CC3)c3ccccc3c2=O)c(OC)c1` are 0% (inactive), 18% (inactive) and 15% (inactive).
As for `O=C(COc1ccc(Cl)cc1Cl)N1CCN(C/C=C/c2ccccc2)CC1`, the inhibition in experiment [1] is 0% (inactive); in experiment [2], 2% (inactive); in experiment [3], 0% (inactive).
Turning to `CON=Cc1ccc(N2CCN(C(=O)c3cccc(C(F)(F)F)c3)CC2)c([N+](=O)[O-])c1`, the inhibition in experiment [1], in experiment [2] and in experiment [3] was 14% (inactive) throughout.
For the molecule `COc1ccc2c(c1)C(=O)[C@H](O)[C@@H](c1ccc(OC)c(Br)c1)O2`, the results for the inhibition in experiment [1], in experiment [2] and in experiment [3] were 23% (inactive), 47% and 55%, respectively.
Turning to `COc1ccc(N2CCN(C(=O)c3cc4c(s3)-c3ccccc3S(=O)(=O)C4)CC2)cc1`, the figures for the inhibition in experiment [1], in experiment [2] and in experiment [3] were 25% (inactive), 79% and 74%, respectively.
The matching figures for `O=C(Cc1ccc([N+](=O)[O-])cc1)N1CCN(c2ccc([N+](=O)[O-])cc2)CC1`: 0% (inactive), 0% (inactive) and 0% (inactive).
The matching figures for `COc1cc(/C=C2\SC(=O)N(CC(=O)Nc3cccc(C)c3)C2=O)ccc1OC(C)C(=O)O` (stereo not drawn): 28% (inactive), 58% and 37%.
On the same counts, the results for `O=C(NCC1CCN(c2ccc(S(=O)(=O)N3CCOCC3)cc2)CC1)c1ccc(Cl)cc1` are 3% (inactive), 9% (inactive) and 9% (inactive).
As to `O=C(N1CCOCC1)n1nnc2ccccc21`, the inhibition in experiment [1] is 103%; in experiment [2], 47%; in experiment [3] it was 54%.
The matching figures for `COc1ccc(-n2nc(C(=O)NCC(=O)N3CCN(c4cccc(Cl)c4)CC3)c3ccccc3c2=O)c(OC)c1`: 33%, 52% and 41%.
On the same counts, the results for `COc1ccc(N2CCN(C(=O)C3CCC(Cn4c(=S)[nH]c5ccccc5c4=O)CC3)CC2)cc1` (stereo not drawn) are 16% (inactive), 47% and 44%.
On the same counts, the results for `Cc1ccccc1NC(=O)CN1C(=O)S/C(=C\c2cccn2-c2cccc(C(=O)O)c2)C1=O` are 0% (inactive), 4% (inactive) and 13% (inactive).
Consider `Cc1nc([N+](=O)[O-])cn1CC(=O)Nc1ccc(F)c(Cl)c1`, for which the inhibition in experiment [1] is 0% (inactive); in experiment [2] it was 10% (inactive); in experiment [3] it was 15% (inactive).
In the case of `COc1ccccc1-c1nnc(C2CCN(S(=O)(=O)c3ccc([N+](=O)[O-])cc3)CC2)o1`, the inhibition in experiment [1] was 16% (inactive); in experiment [2], 9% (inactive); in experiment [3] it was 5% (inactive).
With `COc1cc(C2Oc3cc(C4Oc5cc(O)cc(O)c5C(=O)C4O)ccc3OC2CO)ccc1O` (stereo not drawn), the inhibition in experiment [1] was 10% (inactive); in experiment [2] it was 14% (inactive); in experiment [3], 19% (inactive).
The matching figures for `O=C(c1ccc2n[nH]nc2c1)N1CCN(c2ccc(C(F)(F)F)cn2)CC1`: 40%, 26% (inactive) and 35%.
The matching figures for `CCCCCCCCCC(=O)Nn1cnc2ccccc2c1=O`: 28% (inactive), 4% (inactive) and 12% (inactive).
On the same counts, the results for `O=C(O)c1ccc(CN2C(=O)c3ccc(Oc4ccc([N+](=O)[O-])cc4)cc3C2=O)cc1` are 6% (inactive), 7% (inactive) and 4% (inactive).
Turning to `COc1ccccc1-n1cc(C(=O)NCC(=O)N2CCN(Cc3ccccc3)CC2)c2ccccc2c1=O`, the inhibition is 0% (inactive) in experiment [1], 14% (inactive) in experiment [2] and 15% (inactive) in experiment [3].
The matching figures for `CC(CCC(C)C)=NNC(=S)Nc1cc(S(=O)(=O)N2CCOCC2)ccc1N1CCOCC1`: 19% (inactive), 8% (inactive) and 16% (inactive).
For `O=C(O)c1cccc(N2C(=O)c3ccc(Oc4ccc(Cl)cc4)cc3C2=O)c1`, the inhibition in experiment [1] is 25% (inactive); in experiment [2], 7% (inactive); in experiment [3] it was 11% (inactive).
The matching figures for `O=C1Nc2ccc([N+](=O)[O-])cc2OC1CCN1CCN(Cc2ccc3c(c2)OCO3)CC1` (stereo not drawn): 27% (inactive), 9% (inactive) and 21% (inactive).
On the same counts, the results for `O=C(CN1C(=O)S/C(=C\c2ccc(C(=O)O)cc2)C1=O)Nc1ccccc1` are 7% (inactive), 8% (inactive) and 8% (inactive).
On the same counts, the results for `O=[N+]([O-])c1ccc(Oc2cccc(Br)c2)c2ccncc12` are 13% (inactive), 2% (inactive) and 0% (inactive).
For `Cc1cccc(NC(=O)CN2C(=O)S/C(=C\c3cccn3-c3cccc(C(=O)O)c3)C2=O)c1`, the figures for the inhibition in experiment [1], in experiment [2] and in experiment [3] were 17% (inactive), 66% and 77%, respectively.
As for `COc1ccc(-n2nc(C(=O)NCC(=O)N3CCN(Cc4ccc5c(c4)OCO5)CC3)c3ccccc3c2=O)cc1OC`, the inhibition in experiment [1] was 0% (inactive); in experiment [2], 26% (inactive); in experiment [3], 23% (inactive).
